{
  "source": "patent US20030007941A1",
  "about": "“Method of treating hair loss using thyromimetic compounds” (priority 2001, published 2003)",
  "key": {"C3H/HeN mice": {"system": "C3H/HeN mice", "experiment": "Telogen Conversion Assay (topical hair growth)", "type": "in vivo", "details": "for Hair Growth at LDO (% Animals): animals with hair growth score of 1 or greater; for Hair Growth in 50% of Animals: day when 50% or greater had score of 1 or greater", "from_the_text": "The Telogen Conversion Assay measures the potential of a compound (hereinafter referred to as the “test compound”) to convert mice in the resting stage of the hair growth cycle (“telogen”) to the growth stage of the hair growth cycle (“anagen”). Without intending to be limited by theory, there are three principal phases of the hair growth cycle: anagen, catagen and telogen. The telogen period in C3H/HeN mice lasts from approximately 40 days of age until about 75 days of age, when hair growth is synchronized. It is believed that after 75 days of age, hair growth is no longer synchronized. For example, about 40 day-old mice with dark fur (brown or black) may be used in hair growth experiments; melanogenesis occurs in these animals along with hair (fur) growth and the topical application of hair growth inducers may be evaluated in these animals.\nThe Telogen Conversion Assay described below is used to screen test compounds for potential hair growth by measuring melanogenesis:\nObjectives: To evaluate and compare the effect of test compounds applied topically on C3H/HeN mice for hair growth.\nAnimals: Female C3H/HeN mice, six and a half weeks of age.\nRoute and Duration of Treatment: Topical dosing with test compounds on mice is scheduled once or twice daily for five (5) consecutive days for one week to four weeks. Topical dosing begins on Day 0 by applying test compound or vehicle in volumes of 20 μl which keeps the solubilized test compound to a prescribed area of approximately one (1) square centimeter (1 cm^2) in the center of the clipped lower back of each mouse.\nStudy Design: Only mice with pink skin or in the telogen phase of the hair growth cycle are selected for inclusion in the study. On Friday, before the experiment starts, the mice are weighed and then anesthetized with isoflurane in a mouse chamber. The hair over the lower dorsal area is clipped with a Wahl clipper using a #40 blade. Care is taken to avoid abrading the skin surface. On the Monday (Day 0) following hair clipping, the mice are again anesthetized with isoflurane and photographed with a digital camera. After digital photographs are taken, the mice receive 20 μl of the respective test compounds applied with an automated pipette to the clipped area between the hind legs. The test compound for each treatment group is evenly spread with the pipette tip to an area approximately 1 square centimeter (1 cm^2), and applied to the same site on subsequent dosing days. All topical treatments are administered as described in the Route and Duration of Treatment Section.\nObservations of the test sites are made three (3) times a week on Monday, Wednesday, and Friday, with observations beginning immediately after the first week of treatment and looking for changes in skin pigment, hair growth, and signs of irritation such as scaling, peeling, scabbing and erythema. Digital photographs are taken on Days 0, 10, 15, 31 and 35 (end of the study) for the dosing groups. Body weights of mice are taken on the first and last days of observation for each test group.\nThe scoring system for hair growth is described below:\n0=No hair growth/pigment change (pink skin);\n1=Gray/dark skin color (no visible hair growth);\n2=Sparse/diffuse terminal hair growth;\n3=dense, normal hair growth.\nph 2=peripheral hair growth with a score of 2\nph 3=peripheral hair growth with a score of 3\nldsh=long, diffuse/scattered hair growth in the dosing site\nScaling, peeling, scabbing, or erythema are scored as present (+) and absent (−). Any other local (e.g. test compound precipitation) or systemic abnormalities and aberrant hair growth are described on raw data scoring sheet.\nTable 1 is a summary table of the results of the evaluation of five different test compounds in the Telogen Conversion Assay described above. Animals were observed and scored for hair growth using the scoring system for hair growth described above."}, "mice and rats": {"system": "mice and rats", "details": "topical; cited from earlier work"}, "AGA mouse": {"system": "AGA mouse", "details": "topical, model for androgen dependent hair loss; cited from earlier work"}, "[1]": {"details": "Experiment 1, 0.001% topical, 1 wk, LDO day 30"}, "[2]": {"details": "Experiment 1, 0.01% topical, 1 wk, LDO day 30"}, "[3]": {"details": "Experiment 1, 0.1% topical, 1 wk, LDO day 30"}, "[4]": {"details": "Experiment 1, 0.3% topical, 1 wk, LDO day 30"}, "[5]": {"details": "Experiment 2, 0.001% topical, 1 wk, LDO day 35"}, "[6]": {"details": "Experiment 2, 0.01% topical, 1 wk, LDO day 35"}, "[7]": {"details": "Experiment 2, 0.1% topical, 1 wk, LDO day 35"}, "[8]": {"details": "Experiment 2, 0.3% topical, 1 wk, LDO day 35"}, "[9]": {"details": "Experiment 3, 0.1% topical, 1 wk, LDO day 35"}, "[10]": {"details": "Experiment 3, 0.1% topical, 2 wks, LDO day 35"}},
  "data": [
    {"smiles": "O=C(NC1CCCCC1)c1cc(Oc2c(Cl)cc(-n3ncc(=O)[nH]c3=O)cc2Cl)ccc1O", "note": "[Cpd #1, N-Cyclohexyl-5-[2,6-dichloro-4-(3,5-dioxo-4,5-dihydro-3H-[1,2,4]triazin-2-yl)-phenoxy]-2-hydroxy-benzamide]", "values": [
      {"measurement": "Hair Growth at LDO (% Animals)", "setting": "C3H/HeN mice; [1]", "result": 22, "unit": "%"},
      {"measurement": "Hair Growth in 50% of Animals", "setting": "C3H/HeN mice; [1]", "result": ">30", "unit": "days"},
      {"measurement": "Hair Growth at LDO (% Animals)", "setting": "C3H/HeN mice; [2]", "result": 75, "unit": "%"},
      {"measurement": "Hair Growth in 50% of Animals", "setting": "C3H/HeN mice; [2]", "result": 14, "unit": "days"},
      {"measurement": "Hair Growth at LDO (% Animals)", "setting": "C3H/HeN mice; [3]", "result": 100, "unit": "%"},
      {"measurement": "Hair Growth in 50% of Animals", "setting": "C3H/HeN mice; [3]", "result": 7, "unit": "days"},
      {"measurement": "Hair Growth at LDO (% Animals)", "setting": "C3H/HeN mice; [4]", "result": 100, "unit": "%"},
      {"measurement": "Hair Growth in 50% of Animals", "setting": "C3H/HeN mice; [4]", "result": 9, "unit": "days"},
      {"measurement": "Hair Growth at LDO (% Animals)", "setting": "C3H/HeN mice; [5]", "result": 50, "unit": "%"},
      {"measurement": "Hair Growth in 50% of Animals", "setting": "C3H/HeN mice; [5]", "result": 18, "unit": "days"},
      {"measurement": "Hair Growth at LDO (% Animals)", "setting": "C3H/HeN mice; [6]", "result": 100, "unit": "%"},
      {"measurement": "Hair Growth in 50% of Animals", "setting": "C3H/HeN mice; [6]", "result": 14, "unit": "days"},
      {"measurement": "Hair Growth at LDO (% Animals)", "setting": "C3H/HeN mice; [7]", "result": 100, "unit": "%"},
      {"measurement": "Hair Growth in 50% of Animals", "setting": "C3H/HeN mice; [7]", "result": 7, "unit": "days"},
      {"measurement": "Hair Growth at LDO (% Animals)", "setting": "C3H/HeN mice; [8]", "result": 100, "unit": "%"},
      {"measurement": "Hair Growth in 50% of Animals", "setting": "C3H/HeN mice; [8]", "result": 9, "unit": "days"},
      {"measurement": "Hair Growth at LDO (% Animals)", "setting": "C3H/HeN mice; [9]", "result": 100, "unit": "%"},
      {"measurement": "Hair Growth in 50% of Animals", "setting": "C3H/HeN mice; [9]", "result": 7, "unit": "days"},
      {"measurement": "Hair Growth at LDO (% Animals)", "setting": "C3H/HeN mice; [10]", "result": 100, "unit": "%"},
      {"measurement": "Hair Growth in 50% of Animals", "setting": "C3H/HeN mice; [10]", "result": 7, "unit": "days"}
    ]},
    {"smiles": "O=C(c1cc(Oc2c(Cl)cc(-n3ncc(=O)[nH]c3=O)cc2Cl)ccc1O)N1CCc2ccccc2C1", "note": "[Cpd #2, 2-{3,5-Dichloro-4-[3-(3,4-dihydro-1H-isoquinoline-2-carbonyl)-4-hydroxy-phenoxy]-phenyl}-2H-[1,2,4]triazine-3,5-dione]", "values": [
      {"measurement": "Hair Growth at LDO (% Animals)", "setting": "C3H/HeN mice; [10]", "result": 100, "unit": "%"},
      {"measurement": "Hair Growth in 50% of Animals", "setting": "C3H/HeN mice; [10]", "result": 11, "unit": "days"}
    ]},
    {"smiles": "Cc1cc(NC(=O)C(=O)O)cc(C)c1Oc1ccc(O)c2c1CCC2", "note": "[Cpd #3, N-[4-(7-hydroxy-indan-4-yloxy)-3,5-dimethyl-phenyl]-oxamic acid]", "values": [
      {"measurement": "Hair Growth at LDO (% Animals)", "setting": "C3H/HeN mice; [10]", "result": 20, "unit": "%"},
      {"measurement": "Hair Growth in 50% of Animals", "setting": "C3H/HeN mice; [10]", "result": ">35", "unit": "days"}
    ]},
    {"smiles": "Cc1cc(-n2ncc(=O)[nH]c2=O)cc(C)c1Oc1ccc(O)c(Cc2ccc(F)cc2)c1", "note": "[Cpd #4, 2-{4-[3-(4-Fluoro-benzyl)-4-hydroxy-phenoxy]-3,5-dimethyl-phenyl}-2H-[1,2,4]triazine-3,5-dione]", "values": [
      {"measurement": "Hair Growth at LDO (% Animals)", "setting": "C3H/HeN mice; [10]", "result": 100, "unit": "%"},
      {"measurement": "Hair Growth in 50% of Animals", "setting": "C3H/HeN mice; [10]", "result": 9, "unit": "days"}
    ]},
    {"smiles": "O=C(c1ccc(F)cc1)c1cc(Oc2c(Cl)cc(-n3ncc(=O)[nH]c3=O)cc2Cl)ccc1O", "note": "[Cpd #5, 2-{3,5-Dichloro-4-[3-(4-fluoro-benzoyl)-4-hydroxy-phenoxy]-phenyl}-2H-[1,2,4]triazine-3,5-dione]", "values": [
      {"measurement": "Hair Growth at LDO (% Animals)", "setting": "C3H/HeN mice; [10]", "result": 100, "unit": "%"},
      {"measurement": "Hair Growth in 50% of Animals", "setting": "C3H/HeN mice; [10]", "result": 9, "unit": "days"}
    ]},
    {"smiles": "N[C@@H](Cc1cc(I)c(Oc2ccc(O)c(I)c2)c(I)c1)C(=O)O", "note": "[T3, 3,5,3′-triiodo-L-thyronine]", "values": [
      {"measurement": "effect on epidermal proliferation, dermal thickening and hair growth", "setting": "mice and rats", "result": "stimulates epidermal proloferation, dermal thickening and hair growth"},
      {"measurement": "effect on testosterone induced alopecia", "setting": "AGA mouse", "result": "inhibitory effect"}
    ]}
  ]
}
